The test system of one data set is ERK1/2. The experiment in a line: MAPK activation (nuclear phosphorylated ERK1/2 immunoblot). Type of data set: cell-based. To be noted: for effect on MAPK activation by T4: PD 98059 30 µmol/L or CGP41251 100 nmol/L for 30 minutes, then 10^-7 M T4. Here is the method:
ECV304 endothelial cells were cultured in M199 medium with 0.25% hormone-depleted serum 13 for 2 days. […] Nuclear fractions were pre-pared from all samples by the method reported previously (see Li et al., Carcinogenesis 29:62-69 (2008)), the proteins separated by polyacrylamide gel electrophoresis, and transferred to membranes for immunoblotting with antibody to phosphorylated ERK 1/2.
A general note: Immunoblotting shows a protein as a band on a membrane.

The subject of data set [1] is chick chorioallantoic membrane (CAM). The experiment in a line: Chorioallantoic membrane (CAM) model of angiogenesis. In kind it is in vivo. To be noted: for Mean Branch points: n=8. Here is the method: In vivo neovascularization was examined by methods described previously. 9-12 Ten-day-old chick embryos were purchased from SPAFAS (Preston, CT) and incubated at 37°C with 55% relative humidity. A hypodermic needle was used to make a small hole in the shell concealing the air sac, and a second hole was made on the broad side of the egg, directly over an avascular portion of the embryonic membrane that was identified by candling. A false air sac was created beneath the second hole by the application of negative pressure at the first hole, causing the CAM to separate from the shell. A window approximately 1.0 cm^2 was cut in the shell over the dropped CAM with a small-crafts grinding wheel (Dremel, division of Emerson Electric Co.), allowing direct access to the underlying CAM. FGF2 (1µg/mL) was used as a standard proangiogenic agent to induce new blood vessel branches on the CAM of 10-day-old embryos. Sterile disks of No. 1 filter paper (Whatman International) were pretreated with 3 mg/mL cortisone acetate and 1 mmol/L PTU and air dried under sterile conditions. Thyroid hormone, hormone analogs, FGF2 or control solvents, and inhibitors were then applied to the disks and the disks allowed to dry. The disks were then suspended in PBS and placed on growing CAMs. […] At 24 hours, the MAPK cascade inhibitor PD 98059 was also added to CAMs topically by means of the filter disks.
After incubation at 37°C with 55% relative humidity for 3 days, the CAM tissue directly beneath each filter disk was resected from control and treated CAM samples. Tissues were washed 3X with PBS, placed in 35-mm Petri dishes (Nalge Nunc), and examined under an SV6 stereomicroscope (Zeiss) at X50 magnification. Digital images of CAM sections exposed to filters were collected using a 3-charge-coupled device color video camera system (Toshiba) and analyzed with Image-Pro software (Media Cybernetics). The number of vessel branch points contained in a circular region equal to the area of each filter disk were counted. One image was counted in each CAM preparation, and findings from 8 to 10 CAM preparations were analyzed for each treatment condition (thyroid hormone or analogs, FGF2, FGF2 antibody, PD 98059). In addition, each experiment was performed 3 times. The resulting angiogenesis index is the mean ± SEM of new branch points.

In data set [2] the test system is transplantable liver tumor. The conditions noted are these: PTU alone; cited from earlier work.
In the next data set the test system is glioblastoma (GBM). To be noted: mild hypothyroidism induced by PTU; cited from earlier work.
In the next data set the test system is Matrigel plugs. The experiment in a line: Mouse Matrigel model of angiogenesis (plug hemoglobin). Type of data set: in vivo, mice (C57BL/6NCr). To be noted: for Inhibition of FGF induced angiogenesis (grade): mouse matrigel model. Here is the method:
Normal male mice (C57BL/6NCr) 6-8 weeks of age and weighing ~20 g were purchased from Taconic farm. Animals were housed 4 per cage, in controlled conditions of temperature (20-24 °C); humidity (60-70%) and 12 hrs. light/dark cycle provided with food and water ad libitum. […] Matrigel (BD Bioscience, San Jose CA) was thawed overnight at 4 °C and placed on ice. Aliquots of matrigel were placed into cold polypropylene tubes to prevent the matrigel from solidifying and the angiogenesis promoter added to matrigel with or without agonist. Mice were treated daily. Matrigel was subcutaneously injected as triple injection per animal at 100 µL/animal. At day 14 post plug implant all animals were killed in CO2 chamber and matrigel plugs were collected. […]
The matrigel plugs dissected from the mice were carefully stripped of any remaining peritoneum. The plugs were placed into 0.5 mL tube of ddH2O and homogenized for 5-10 min. […] Absorbance was read with a Microplate Manager ELISA reader at 540 nm. […] Hemoglobin concentration is a reflection of the number of blood vessels in the plugs.

The next data set concerns ECV304 endothelial cells. The experiment in a line: FGF2 release from ECV304 endothelial cells (ELISA). In kind it is cell-based. Here is the method: ECV304 endothelial cells were cultured in M199 medium supplemented with 10% fetal bovine serum. […] After 72 hours, the supernatants were harvested and assays for FGF performed without dilution using a commercial ELISA system (R&D Systems) (See Davis et al., Circ Res 94:1500-1506 (2004)).
In general terms: ELISA stands for enzyme-linked immunosorbent assay.

Another data set relates to FGF2 cDNA. The experiment in a line: RT-PCR of FGF2 in ECV304 cells. Type of data set: cell-based. To be noted: T4 10^-7 mol/L for 6 to 48 hours. The protocol: RNA (1 µg) was subjected to reverse transcription-polymerase chain reaction (RT-PCR) using the Access RT-PCR system (Promega). Total RNA was reverse transcribed into cDNA at 48°C for 45 minutes, then denatured at 94°C for 2 minutes. Second-strand synthesis and PCR amplification were performed for 40 cycles with denaturation at 94°C for 30 s, annealing at 60°C for 60 s, and extension at 68°C for 120 s, with final ex-tension for 7 minutes at 68°C after completion of all cycles. PCR primers for FGF2 were as follows: FGF2 sense strand 5'-[…]-3' (SEQ ID NO:1), antisense strand 5' […]-3' (SEQ ID NO:2); the length of the PCR product was 734 bp. Primers for GAPDH included the sense strand 5'-[…]-3' (SEQ ID NO:3), and antisense strand 5'-[…]-3' (SEQ ID NO:4); the length of the PCR product was 218 bp. […] The target bands of the gel were quantified using LabImage software (Kapelan), and the value for [FGF2/GAPDH]X10 calculated for each time point.

For data set [3] the following is noted: cited from earlier work.
Setting [4] is: CAM model, FGF (1.25 µg/ml) + compound at 10 µg/plug.
The mark [5] stands for this setting: FGF 100 ng + compound 10 µg/plug, n= 7-14.

Consider eleven compounds from EP2662079A1 (Ordway Research Institute, Inc., priority 2012, dated 2013).

Values joined by “and” are separate entries in the source; they are usually repeats but may differ in a detail not shown here. Identical values can stand only once.

For `CO[C@@H]1[C@H](N(C)C(=O)c2ccccc2)C[C@H]2O[C@]1(C)n1c3ccccc3c3c4c(c5c6ccccc6n2c5c31)C(=O)NC4` [CGP41251], the “effect on MAPK activation by T4” value with ERK1/2 was “blocked”.

With `COc1cccc(-c2cc(=O)c3ccccc3o2)c1N` [PD 98059], in data set [1] (3 µmol/L PD 98059), the “effect on blood vessel branching caused by T3 and T4” value was “completely blocked”. For the same compound, the “effect on MAPK activation by T4” value in the data set on ERK1/2 is “inhibited”.

Regarding `CCCc1cc(=O)[nH]c(=S)[nH]1` [PTU, 6-N-propyl-2-thiouracil], the “growth rate versus control neoplasms” value in data set [2] was “no difference in growth rate”. Also, in the data set on glioblastoma (GBM), the “improvement of the duration of survival” value is given as 3 fold.

Turning to `CNC(Cc1cc(I)c(Oc2cc(I)c(O)c(I)c2)c(I)c1)C(=O)[O-].O.O.[K+]` (centres unmarked) [T4 analog 10, Potassium 3-[4-(4-hydroxy-3,5-diiodophenoxy)-3,5-diiodophenyl]-2-(methylamino)propanoate dihydrate], the “Hemoglobin (mg/mL)± SEM” value with Matrigel plugs (10 µg/matrigel plug, n= 6-7) was 0.8 ± 0.2 mg/mL.

Consider `CCNC(Cc1cc(I)c(Oc2cc(I)c(O)c(I)c2)c(I)c1)C(=O)O` (centres unmarked) [T4 analog 11, 2-(Ethylamino)-3-[4-(4-hydroxy-3,5-diiodophenoxy)-3,5-diiodophenyl]propanoic acid], for which, in data set [1] (CAM model, 0.1 µM), the “Mean % of stimulation (comparing to PBS)” value was 86.3 ± 9.4%. The “Mean Branch points” value in data set [1] (CAM model, 0.1 µM, mean ± SEM) amounted to 136± 12.8. In the data set with Matrigel plugs (10 µg/matrigel plug), the “Mean stimulation of angiogenesis (%)” value is 45±33%. Besides, in the data set on Matrigel plugs (10 µg/matrigel plug, n= 6-7), the “Hemoglobin (mg/mL)± SEM” value worked out at 0.6 ± 0.2 mg/mL.

`CC(C)(C)OC(=O)NC(Cc1cc(I)c(Oc2cc(I)c(OCC3CO3)c(I)c2)c(I)c1)C(=O)OCC1CO1` (centres unmarked) [T4 analog 14, Oxiran-2-ylmethyl-2-(tert-butoxycarbonylamino)-3-(4-(3,5-diiodo-4-(oxiran-2-ylmethoxy)phenoxy)-3,5-diiodophenyl)propanoate]: the “Hemoglobin (mg/mL)± SEM” value with Matrigel plugs (10 µg/matrigel plug, n= 6-7) is 0.3 ± 0.1 mg/mL.

For the compound `N[C@@H](Cc1cc(I)c(Oc2cc(I)c(O)c(I)c2)c(I)c1)C(=O)O` [T4, L-thyroxine], the “generation of new blood vessels from existing vessels promoted” value in data set [1] (10^7-10-^9 M) was “two- to three-fold”. The “Branch pts ± SEM” value in data set [1] (CAM assay before conjugation, 0.1 µM) stood at 137.3 ± 8.8. The same compound yielded an increase in angiogenesis in data set [1] (CAM model, 3 experiments (Figure 5A)) of 1.5 fold. Moreover, in data set [1] (CAM model, 0.1 µM), the “Mean % of stimulation (comparing to PBS)” value was determined as 87.7 ± 7%. Further, in data set [1] (CAM model, 0.1 µM, mean ± SEM), the “Mean Branch points” value worked out at 137± 8. Also, the “ANGIOGENESIS INDEX” value in data set [1] (CAM model, 0.1uM, n = 8 per group) was 143.8 ± 7.9. Further, in data set [1] (T4 0.1 µmol/L for 3 days), the “increase in blood vessel branch formation” value was 2.5 fold and 2.3 fold. Moreover, in the data set on ECV304 endothelial cells (T4 (0.1 µmol/L) or T3 (0.01 µmol/L) for 3 days), the “increase of FGF2 concentration in the medium” value was 1.4 fold. In addition, in the data set with ECV304 endothelial cells (T4 (0.1 µmol/L), 3 days), the “FGF2 (pg/mL/10^6 cells)” value is 39.2 ±2.8 pg/mL/10^6 cells. Besides, the “appearance of phosphorylated ERK1/2 in cell nuclei” value in the data set on ERK1/2 (T4 10^-7 mol/L) was at most 15 min. Moreover, the “increase in abundance of FGF2 cDNA, corrected for GAPDH content” value with FGF2 cDNA is “apparent by 6 hours”. Also, in the data set with Matrigel plugs (T4 (0.1 µM)), the “Hemoglobin (mg/mL)± SEM” value was found to be 0.9 ± 0.2 mg/mL and the “Mean stimulation of angiogenesis (%)” value is recorded as 100±22%. In the data set with Matrigel plugs (T4 alone, 10 µg/matrigcl plug, n= 25), the “Hemoglobin (mg/mL)± SEM” value came to 1.2 ± 0.4 mg/mL. Moreover, in data set [3], the “pKa of the COOH (carboxylic acid) group” value is on record as about 2.0 and the “pKa of the NH2 (amino) group” value is recorded as “approximately 9.0”. Moreover, the “pKa of the PhOH (phenol) group” value in data set [3] (fluorescent quenching) was 6.2.

On to `CC(C)(C)OC(=O)Cc1cc(I)c(Oc2cc(I)c(O)c(I)c2)c(I)c1` [Tetrac analog 3, tert-Butyl-2-(4-(4-hydroxy-3,5-diiodophenoxy)-3,5-diiodophenyl)acetate], for which, in data set [1] (setting [4]), the “Mean % Inhibition” value stood at 88±13% and the “Mean Branch points” value is reported as 79±7. For the same compound, the “Hemoglobin (mg/mL)± SEM” value with Matrigel plugs (setting [5]) came to 0.4 ± 0.1 mg/mL. Also, the “Inhibition of FGF induced angiogenesis (grade)” value (from here on “Inhibition … (grade)”) in the data set with Matrigel plugs is “strong (compounds were considered to be strong inhibitors if they achieved more than 50% inhibition as compared to the control)”.

As to `O=C(Cc1cc(I)c(Oc2cc(I)c(O)c(I)c2)c(I)c1)NC1CCCCC1` [Tetrac analog 4, N-cyclohexyl-2-(4-(4-hydroxy-3.5-diiodophenoxy)-3,5-diiodophenyl)acetamide], the “Hemoglobin (mg/mL)± SEM” value in the data set on Matrigel plugs (setting [5]) was found to be 0.2 ± 0.1 mg/mL. Moreover, the “Inhibition … (grade)” value in the data set on Matrigel plugs is “strong (compounds were considered to be strong inhibitors if they achieved more than 50% inhibition as compared to the control)”.

With `CC(C)[Si](OC(=O)Cc1cc(I)c(Oc2cc(I)c(O)c(I)c2)c(I)c1)(C(C)C)C(C)C` [Tetrac analog 5, Triisopropylsilyl-2-(4-(4-hydroxy-3,5-diiodophenoxy)-3,5-diiodophenyl)acetate], the “Hemoglobin (mg/mL)± SEM” value in the data set with Matrigel plugs (setting [5]) came to 0.2 ± 0.1 mg/mL. In addition, the “Inhibition … (grade)” value in the data set with Matrigel plugs is “strong (compounds were considered to be strong inhibitors if they achieved more than 50% inhibition as compared to the control)”.

Take `O=C(Cc1cc(I)c(Oc2cc(I)c(OCC3CO3)c(I)c2)c(I)c1)NC1CCCCC1` (centres unmarked) [Tetrac analog 6, N-cyclohexyl-2-(4-(3,5-diiodo-4-(oxiran-2-ylmethoxy)phenoxy)-3,5-diiodophenyl)acetamide]: the “Hemoglobin (mg/mL)± SEM” value in the data set on Matrigel plugs (setting [5]) amounted to 0.7 ± 0.1 mg/mL. In addition, in the data set on Matrigel plugs, the “Inhibition … (grade)” value is listed as “strong (compounds were considered to be strong inhibitors if they achieved more than 50% inhibition as compared to the control)”.
